Series [1] has as its system Staphylococcus aureus. Briefly: Induction of ROS accumulation in Staphylococcus aureus ATCC 29213 at 1 ug/ml incubated for 30 mins by DCF-DA staining based fluorescence analysis. As to conditions: dose 1.0 µg/ml. Format: functional, organism-based.
The test system of series [2] is Staphylococcus aureus. Briefly: Antimicrobial activity against methicillin-resistant Staphylococcus aureus incubated for 16 to 20 hrs by CLSI based broth dilution method. The conditions noted are these: time 16-20 hrs. Format: functional. (In general: In broth dilution the organism is exposed to a series of concentrations in liquid medium.)
The subject of series [3] is Staphylococcus aureus. Briefly: Induction of ROS accumulation in Staphylococcus aureus ATCC 29213 at 0.5 ug/ml incubated for 30 mins by DCF-DA staining based fluorescence analysis. Format: functional, organism-based. As to conditions: dose 0.5 µg/ml.
Series [4] concerns Staphylococcus aureus. Nature of the series: Bactericidal activity against Staphylococcus aureus ATCC 29213 incubated for 16 to 20 hrs in presence of 50% plasma by broth dilution method. Format: functional, organism-based. As to conditions: time 16-20 hrs.
The test system of series [5] is Cell membrane. Nature of the series: Induction of membrane damage in Staphylococcus aureus ATCC 29213 assessed as change in membrane shape at 8 ug/ml incubated for 6 hrs by scanning electron microscopic analysis. The conditions noted are these: dose 8.0 µg/ml.
Series [6] has as its system Staphylococcus aureus. Nature of the series: Antimicrobial activity against methicillin-resistant Staphylococcus aureus infected in Kunming female mouse assessed as reduction in bacterial load in skin at 5 mg/kg/day administered at labeled position and measured after 24 hrs relative to control. It is filed as functional. Details: scale not given: the % may be the effect or the level left.

The test system of series [7] is Staphylococcus aureus. Briefly: Antimicrobial activity against Staphylococcus aureus ATCC 29213 incubated for 16 to 20 hrs by CLSI based broth dilution method. The conditions noted are these: Staphylococcus aureus, ATCC 29213; time 16-20 hrs; read-out: MIC. It is filed as functional.
For series [8], the system named is Staphylococcus aureus. Nature of the series: Antimicrobial activity against methicillin-resistant Staphylococcus aureus infected in Kunming female mouse assessed as reduction in bacterial load in skin at 10 mg/kg/day administered at labeled position and measured after 24 hrs relative to control. It is filed as functional. Details: scale not given: the % may be the effect or the level left.

Series [9] relates to Staphylococcus aureus. Briefly: Bactericidal activity against Staphylococcus aureus ATCC 29213 assessed as remaining bacterial concentration at 8 ug/ml measured after 8 hrs. It is filed as functional. As to conditions: dose 8 µg/ml.
Series [10] relates to Stenotrophomonas maltophilia. Briefly: Antimicrobial activity against Stenotrophomonas maltophilia ATCC 17808 incubated for 16 to 20 hrs by CLSI based broth dilution method. It is filed as functional. The conditions noted are these: Stenotrophomonas maltophilia, ATCC 17808; time 16-20 hrs; read-out: MIC.
In a further series the test system is Enterococcus faecium. Briefly: Antimicrobial activity against Enterococcus faecium ATCC 29212 incubated for 16 to 20 hrs by CLSI based broth dilution method. Format: functional. The conditions noted are these: Enterococcus faecium, ATCC 29212, time 16-20 hrs; read-out: MIC.
A short description of series [11]: Hemolytic activity in sheep erythrocytes incubated for 1 hr by absorbance based analysis. It is filed as toxicity, cell-based, Ovis aries, Erythrocyte. As to conditions: sheep erythrocytes.
The test system of series [12] is Cell membrane. Briefly: Induction of membrane disruption in Staphylococcus aureus ATCC 29213 assessed as increase in red fluorescence at 8 ug/ml incubated for 30 mins by DAPI/PI staining based confocal microscopic analysis. Format: subcellular. As to conditions: dose 8.0 µg/ml.
A further series deals with Escherichia coli. Briefly: Antimicrobial activity against Escherichia coli ATCC 25922 incubated for 16 to 20 hrs by CLSI based broth dilution method. It is filed as functional. The conditions noted are these: Escherichia coli, ATCC 25922; time 16-20 hrs; read-out: MIC.
Series [13] in a line: Cytotoxicity against human BGC cells assessed as inhibition of cell growth incubated for 72 hrs by CCK-8 assay. Format: toxicity, cell-based. (In general: Formazan colour is commonly taken as a measure of viable cells.)
The nature of series [14]: Cytotoxicity against human WPMY-1 cells assessed as inhibition of cell growth incubated for 72 hrs by CCK-8 assay. Format: toxicity, cell-based.
For series [15], the system named is Staphylococcus aureus. Briefly: Induction of ROS accumulation in Staphylococcus aureus ATCC 29213 at 1 ug/ml incubated for 30 mins in presence of N-acetyl-L-cysteine by DCF-DA staining based fluorescence analysis. Format: functional, organism-based. The conditions noted are these: dose 1.0 µg/ml.
Series [16] has as its system Staphylococcus aureus. Briefly: Antibacterial activity against Staphylococcus aureus ATCC 29213 assessed as inhibition of bacterial growth at 1 ug/ml incubated for 16 to 18 hrs in presence of genomic DNA at 0.125 to 4 ug/ml by microplate reader analysis. Format: functional, organism-based. As to conditions: dose 1.0 µg/ml, time 16-18 hrs.
The subject of series [17] is Cell membrane. Nature of the series: Induction of membrane depolarization in Staphylococcus aureus ATCC 29213 assessed as increase in fluorescence intensity treated for 6 mins prior to compound addition and further measured for 20 mins by DiSC3-5 dye based fluorescence analysis. Format: subcellular. As to conditions: dose 16-64 µg/ml.
The subject of series [18] is Staphylococcus aureus. Nature of the series: Antibacterial activity against Staphylococcus aureus ATCC 29213 assessed as fold increase in MIC incubated for 18 hrs in presence of phosphatidylethanolamine at 64 ug/ml incubated for 18 hrs by checkerboard dilution assay relative to control. Format: functional.
Series [19] has as its system Staphylococcus aureus. Nature of the series: Antibacterial activity against Staphylococcus aureus ATCC 29213 assessed as fold increase in MIC incubated for 18 hrs in presence of phosphatidylglycerol incubated for 18 hrs by checkerboard dilution assay relative to control. It is filed as functional.
The test system of series [20] is Staphylococcus aureus. Briefly: Bactericidal activity against Staphylococcus aureus ATCC 29213 assessed as reduction in bacterial growth at 8 ug/ml measured upto 24 hrs. It is filed as functional, organism-based. The conditions noted are these: dose 8.0 µg/ml.
Series [21] has as its system Staphylococcus aureus. Briefly: Antimicrobial activity against methicillin-resistant Staphylococcus aureus infected in Kunming female mouse assessed as reduction in neutrophil levels in skin at 5 to 10 mg/kg/day administered at labeled position and measured after 24 hrs by H and E staining based analysis. It is filed as functional, organism-based. The conditions noted are these: dose 5-10 mg/kg/day.

The subject of series [22] is Cell membrane. Briefly: Induction of membrane damage in Staphylococcus aureus ATCC 29213 assessed as membrane collapse with flowing contents at 8 ug/ml incubated for 6 hrs by scanning electron microscopic analysis. As to conditions: dose 8.0 µg/ml. Format: subcellular.
For series [23], the system named is Cell membrane. Briefly: Induction of membrane damage in Staphylococcus aureus ATCC 29213 assessed as shrunken bacterial cell surface at 8 ug/ml incubated for 6 hrs by scanning electron microscopic analysis. It is filed as subcellular. The conditions noted are these: dose 8.0 µg/ml.
Series [24] is described as follows: Induction of drug resistance in Staphylococcus aureus ATCC 29213 assessed as test compound MIC at sub-MIC measured after 20 days (reference value: 1 ug/ml). Format: functional. As to conditions: ATCC 29213, 480 h, time 20 day.
Series [25] relates to Cell membrane. Nature of the series: Induction of membrane damage in Staphylococcus aureus ATCC 29213 assessed as sticky appearance of bacterial cells at 8 ug/ml incubated for 6 hrs by scanning electron microscopic analysis. Format: subcellular. As to conditions: dose 8.0 µg/ml.
Series [26] relates to Cell membrane. Nature of the series: Induction of membrane disruption in Staphylococcus aureus ATCC 29213 assessed as nucleic acid leakage at 16 ug/ml incubated for 2 hrs by ultra-fine fluorescence spectrophotometry analysis. The conditions noted are these: dose 16.0 µg/ml.
Series [27] concerns Staphylococcus aureus. Briefly: Antibacterial activity against Staphylococcus aureus ATCC 29213 assessed as increase in MIC incubated for 18 hrs in presence of cardiolipin incubated for 18 hrs by checkerboard dilution assay. Format: functional, organism-based.
Series [28] in a line: Cytotoxicity against HUVEC cells assessed as inhibition of cell growth incubated for 72 hrs by CCK-8 assay. As to conditions: human. It is filed as toxicity, cell-based.
The subject of series [29] is Staphylococcus aureus. Nature of the series: Antimicrobial activity against methicillin-resistant Staphylococcus aureus infected in Kunming female mouse assessed as reduction in skin inflammation at 5 to 10 mg/kg/day administered at labeled position and measured after 24 hrs by H and E staining based analysis. It is filed as functional, organism-based. The conditions noted are these: dose 5-10 mg/kg/day.

Series [30] has as its system Staphylococcus aureus. Nature of the series: Bactericidal activity against Staphylococcus aureus ATCC 29213 assessed as fold increase in MIC incubated for 16 to 20 hrs in presence of 50% plasma by broth dilution method relative to control. As to conditions: time 16-20 hrs. Format: functional.
Series [31] relates to Staphylococcus aureus. Briefly: Bactericidal activity against Staphylococcus aureus ATCC 29213 assessed as fold increase in MIC incubated for 16 to 20 hrs in presence of 50% serum by broth dilution method relative to control. It is filed as functional. The conditions noted are these: time 16-20 hrs.
The test system of series [32] is Cell membrane. Nature of the series: Induction of membrane depolarization in Staphylococcus aureus ATCC 29213 assessed as increase in fluorescence intensity at 16 ug/ml treated for 6 mins prior to compound addition and further measured for 20 mins by DiSC3-5 dye based fluorescence analysis. The conditions noted are these: dose 16.0 µg/ml.
Series [33] relates to Staphylococcus aureus. Nature of the series: Induction of ROS accumulation in Staphylococcus aureus ATCC 29213 at 0.25 to 0.5 ug/ml incubated for 30 mins by DCF-DA staining based fluorescence analysis. It is filed as functional, organism-based. As to conditions: dose 0.25-0.5 µg/ml.
Series [34] deals with Staphylococcus aureus. Nature of the series: Antimicrobial activity against methicillin-resistant Staphylococcus aureus incubated for 16 to 20 hrs by broth microdilution method. It is filed as functional. As to conditions: time 16-20 hrs.

In brackets after ≈: the same amount, converted by molar mass. Activity calls are given as the source filed them. No cut-off for these calls is given here.

The text below walks through data of ChEMBL document CHEMBL5331085 (Eur J Med Chem, 2023).

Take `CCCCCC[N+](C)(C)CCCOc1cccc(-c2cccc(OCCC[N+](C)(C)CCCCCC)c2)c1.[Br-].[Br-]`: the outcome in the series with Staphylococcus aureus [1] and with Staphylococcus aureus [15] was inactive. The MIC90 against Staphylococcus aureus [2] was 1 µg/mL. Moreover, the result in the series with Staphylococcus aureus [3], in the series with Staphylococcus aureus [4], in the series on Cell membrane [5], in the series with Cell membrane [12], with Staphylococcus aureus [16] and in the series on Staphylococcus aureus [20] was Active. Further, the outcome in the series on Staphylococcus aureus [21], in the series with Cell membrane [22], in the series with Cell membrane [23], in the series with Cell membrane [25], in the series with Cell membrane [26] and with Staphylococcus aureus [27] was Active. Besides, in the series on Staphylococcus aureus [29], the outcome was Active. Also, the Activity was 99.67% in the series on Staphylococcus aureus [6], 99.93% with Staphylococcus aureus [8], <1 10^2CFU/ml in the series with Staphylococcus aureus [9] and “Dose-Dependent Effect” in the series on Cell membrane [17]. Also, the MIC was 1 µg/mL with Staphylococcus aureus [7]; 16 µg/mL in series [10]; 8 µg/mL in the series with Enterococcus faecium; 16 µg/mL with Escherichia coli; 1 µg/mL in series [24]. The compound further registered a concentration for 50% haemolysis (HC50) at 1 h in series [11] of 905 µg/mL. Besides, the figures for the IC50 at 72 h in series [13], in series [14] and in [28] were 18.8 µg/mL, 23.3 µg/mL and 24.6 µg/mL, respectively. The “fold change (FC)” value in the series on Staphylococcus aureus [18] is 2; in the series with Staphylococcus aureus [19] it was 16.

Turning to `CC[C@H](C)[C@H](NC(=O)CN)C(=O)NCC(=O)N[C@@H](C)C(=O)N[C@H](C(=O)N[C@@H](CC(C)C)C(=O)N[C@@H](CCCCN)C(=O)N[C@H](C(=O)N[C@@H](CC(C)C)C(=O)N[C@H](C(=O)N[C@H](C(=O)NCC(=O)N[C@@H](CC(C)C)C(=O)N1CCC[C@H]1C(=O)N[C@@H](C)C(=O)N[C@@H](CC(C)C)C(=O)N[C@H](C(=O)N[C@@H](CO)C(=O)N[C@@H](Cc1c[nH]c2ccccc12)C(=O)N[C@H](C(=O)N[C@@H](CCCCN)C(=O)N[C@@H](CCCNC(=N)N)C(=O)N[C@@H](CCCCN)C(=O)N[C@@H](CCCNC(=N)N)C(=O)N[C@@H](CCC(N)=O)C(=O)N[C@@H](CCC(N)=O)C(N)=O)[C@@H](C)CC)[C@@H](C)CC)[C@@H](C)O)[C@@H](C)O)C(C)C)C(C)C` [MELITTIN], the outcome in the series with Staphylococcus aureus [1] and in the series on Cell membrane [32] was Active. Moreover, the “fold change (FC)” value in the series on Staphylococcus aureus [30] and with Staphylococcus aureus [31] was greater than 32 each time. Moreover, the results for the MIC (in series [10]; in the series with Enterococcus faecium) were 8 µg/mL (≈ 2.81 µM) and 2 µg/mL (≈ 0.703 µM), respectively. In addition, the result in the series with Staphylococcus aureus [33] and in the series on Staphylococcus aureus [15] was inactive. Further, in series [28], the IC50 at 72 h came out at 5.8 µg/mL (≈ 2.04 µM).

Regarding `CCCCCCCC[N+](C)(C)CCCCCOc1ccc(OCCCCC[N+](C)(C)CCCCCCCC)cc1.[Br-].[Br-]`, in the series on Staphylococcus aureus [34], it took 0.25 µg/mL to inhibit growth (MIC). In series [11], this compound registered an HC50 at 1 h of 1210 µg/mL.

As usually defined, the MIC90 is an inhibitory concentration at the 90% level, which refers to growth in some studies and to a panel of isolates in others. By MIC is commonly meant the lowest concentration that inhibits growth of the organism. For orientation: HC50 means the concentration giving 50% haemolysis. For orientation: IC50 means the midpoint of a concentration-inhibition curve.
